This is an account of results in paper PMC7384767 (Journal of natural products, 2020).

The subject of this experiment is M. tuberculosis H37Rv. Kind of experiment: Microplate Alamar Blue assay. It counts as cell-based. To be noted: result in words. (In general: Resazurin is reduced to fluorescent resorufin, in cell work by metabolically active cells.)

On to `C=CC(C)(C)n1cc(C[C@@H]2NC(=O)[C@H](CC(C)C)N(C)C2=O)c2ccccc21` [Compound 9, rufomyazine], for which the anti-TB activity entry was “did not show anti-TB activity”.
